Where a SMILES comes first, the peptide text is derived from it. Bounds are passed on as bounds.

Broadly, the IC50 is the midpoint of a concentration-inhibition curve.

Experiment [1] deals with Nicotinic acetylcholine receptor alpha9/alpha10 (Rattus norvegicus, UniProt P43144+Q9JLB5). The experiment can be described thus: Antagonist activity at rat alpha9alpha10 nACh receptor expressed in Xenopus oocyte assessed as inhibition of acetylcholine-induced response at -70 mV holding potential by voltage-clamp based electrophysiological assay. In kind it is cell-based.
Nicotinic acetylcholine receptor alpha9/alpha10, sequence (P43144 whole entry): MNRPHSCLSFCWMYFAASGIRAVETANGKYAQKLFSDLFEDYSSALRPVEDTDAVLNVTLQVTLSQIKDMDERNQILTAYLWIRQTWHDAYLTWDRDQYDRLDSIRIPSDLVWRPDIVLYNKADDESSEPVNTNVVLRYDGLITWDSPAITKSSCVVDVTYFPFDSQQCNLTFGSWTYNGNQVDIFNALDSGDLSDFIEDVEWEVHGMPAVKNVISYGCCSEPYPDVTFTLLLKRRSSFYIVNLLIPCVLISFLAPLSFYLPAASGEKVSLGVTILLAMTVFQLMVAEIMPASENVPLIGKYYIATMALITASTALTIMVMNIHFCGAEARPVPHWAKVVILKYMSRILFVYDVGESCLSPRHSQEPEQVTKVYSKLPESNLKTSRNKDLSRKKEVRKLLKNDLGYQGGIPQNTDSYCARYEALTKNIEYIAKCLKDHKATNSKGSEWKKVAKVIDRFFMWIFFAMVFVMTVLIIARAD
Nicotinic acetylcholine receptor alpha9/alpha10, sequence (Q9JLB5 whole entry): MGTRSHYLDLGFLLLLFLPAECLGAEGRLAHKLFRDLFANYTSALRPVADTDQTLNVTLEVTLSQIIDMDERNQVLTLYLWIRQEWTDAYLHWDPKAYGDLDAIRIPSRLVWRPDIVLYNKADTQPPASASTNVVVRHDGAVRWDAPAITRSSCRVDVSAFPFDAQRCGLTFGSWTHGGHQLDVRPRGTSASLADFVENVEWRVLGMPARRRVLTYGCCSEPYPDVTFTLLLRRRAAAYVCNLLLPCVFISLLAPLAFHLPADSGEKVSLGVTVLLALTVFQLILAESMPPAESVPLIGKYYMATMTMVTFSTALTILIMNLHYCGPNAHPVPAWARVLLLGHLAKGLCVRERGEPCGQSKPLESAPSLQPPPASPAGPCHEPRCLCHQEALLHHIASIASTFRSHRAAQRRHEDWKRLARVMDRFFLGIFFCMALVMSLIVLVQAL

Experiment [2] concerns the target Neuronal acetylcholine receptor subunit alpha-7 (Rattus norvegicus, UniProt Q05941). Put plainly: Antagonist activity at rat alpha7 nACh receptor expressed in Xenopus oocyte assessed as inhibition of acetylcholine-induced response at -70 mV holding potential by voltage-clamp based electrophysiological assay. Format: cell-based.

Neuronal acetylcholine receptor subunit alpha-7, sequence (Q05941 whole entry): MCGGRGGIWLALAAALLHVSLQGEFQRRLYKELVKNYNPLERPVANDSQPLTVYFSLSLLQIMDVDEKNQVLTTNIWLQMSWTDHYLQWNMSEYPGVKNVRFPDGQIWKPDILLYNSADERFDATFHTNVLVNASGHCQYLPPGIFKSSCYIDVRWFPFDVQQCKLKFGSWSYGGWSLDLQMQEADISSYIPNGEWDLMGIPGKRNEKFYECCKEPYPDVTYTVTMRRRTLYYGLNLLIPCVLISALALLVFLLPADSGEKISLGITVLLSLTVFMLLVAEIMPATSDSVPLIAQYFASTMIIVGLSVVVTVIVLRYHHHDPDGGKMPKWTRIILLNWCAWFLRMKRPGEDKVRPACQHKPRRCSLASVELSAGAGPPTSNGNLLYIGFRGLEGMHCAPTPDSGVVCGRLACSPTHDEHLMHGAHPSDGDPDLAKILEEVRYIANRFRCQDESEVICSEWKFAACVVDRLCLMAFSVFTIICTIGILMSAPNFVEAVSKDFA

`CC[C@H](C)[C@@H]1NC(=O)[C@H](CCCNC(=N)N)NC(=O)[C@H](CCCNC(=N)N)NC(=O)[C@@H](NC(=O)[C@H](Cc2ccc(O)cc2)NC(=O)[C@H](CCCNC(=N)N)NC(=O)[C@H](CCCNC(=N)N)NC(=O)[C@H](CCCNC(=N)N)NC(=O)[C@H](C)NC(=O)[C@H](CC(=O)O)NC(=O)[C@H](Cc2ccc(O)cc2)NC(=O)[C@@H]2CCCN2C(=O)[C@H](CO)NC(=O)[C@H](CCCNC(=N)N)NC(=O)[C@@H]2CSSC[C@H](NC(=O)[C@H](N)[C@H](C)O)C(=O)N[C@@H](CCCNC(=N)N)C(=O)N[C@@H](CO)C(=O)N[C@@H](CO)C(=O)NCC(=O)N[C@@H](CCCNC(=N)N)C(=O)N[C@@H](Cc3ccc(O)cc3)C(=O)N2)CSSC[C@@H](C(=O)N[C@H](C(=O)O)C(C)C)NC(=O)[C@H](C)NC(=O)[C@H](CC(=O)O)NC(=O)[C@H]([C@@H](C)O)NC1=O`: the IC50 was 32 nM in experiment [1] and 3280 nM in experiment [2].

As to `CC[C@H](C)[C@@H]1NC(=O)[C@H](CCCNC(=N)N)NC(=O)[C@H](CCCNC(=N)N)NC(=O)[C@@H]2CSSC[C@H](NC(=O)[C@H](Cc3ccc(O)cc3)NC(=O)[C@H](C)NC(=O)CNC(=O)[C@H](CO)NC(=O)[C@H](CO)NC(=O)[C@H](CCCNC(=N)N)NC(=O)[C@@H](NC(=O)[C@@H](N)[C@@H](C)O)CSSC[C@@H](C(=O)N[C@H](C(=O)O)C(C)C)NC(=O)[C@H](C)NC(=O)[C@H](CC(=O)O)NC(=O)[C@H]([C@@H](C)O)NC1=O)C(=O)N[C@@H](CCCNC(=N)N)C(=O)N[C@@H](CO)C(=O)N1CCC[C@H]1C(=O)N[C@@H](Cc1ccc(O)cc1)C(=O)N[C@@H](CC(=O)O)C(=O)N[C@@H](CCCNC(=N)N)C(=O)N[C@@H](CCCNC(=N)N)C(=O)N[C@@H](CCCNC(=N)N)C(=O)N[C@@H](CCCNC(=N)N)C(=O)N[C@@H](Cc1ccc(O)cc1)C(=O)N2` (HELM PEPTIDE1{T.C.R.S.S.G.A.Y.C.R.S.P.Y.D.R.R.R.R.Y.C.R.R.I.T.D.A.C.V}$PEPTIDE1,PEPTIDE1,2:R3-27:R3|PEPTIDE1,PEPTIDE1,9:R3-20:R3$$$V2.0), the 50% inhibitory concentration (IC50) in experiment [1] was 48 nM; in experiment [2] it was more than 10000 nM.

As for `CC[C@H](C)[C@@H]1NC(=O)[C@H](CCCNC(=N)N)NC(=O)[C@H](CCCNC(=N)N)NC(=O)[C@@H](NC(=O)[C@H](Cc2ccc(O)cc2)NC(=O)[C@H](CCCNC(=N)N)NC(=O)[C@H](CCCNC(=N)N)NC(=O)[C@H](CCCNC(=N)N)NC(=O)[C@H](CCCNC(=N)N)NC(=O)[C@H](CC(=O)O)NC(=O)[C@H](Cc2ccc(O)cc2)NC(=O)[C@@H]2CCCN2C(=O)[C@@H](CO)NC(=O)[C@H](C)NC(=O)[C@@H]2CSSC[C@H](NC(=O)[C@@H](N)[C@@H](C)O)C(=O)N[C@@H](CCCNC(=N)N)C(=O)N[C@@H](CO)C(=O)N[C@@H](CO)C(=O)NCC(=O)N[C@@H](CCCNC(=N)N)C(=O)N[C@@H](Cc3ccc(O)cc3)C(=O)N2)CSSC[C@@H](C(=O)N[C@H](C(=O)O)C(C)C)NC(=O)[C@H](C)NC(=O)[C@H](CC(=O)O)NC(=O)[C@H]([C@@H](C)O)NC1=O`, the half-inhibitory concentration (IC50) was 71 nM in experiment [1] and 1910 nM in experiment [2].

On to `CC[C@H](C)[C@@H]1NC(=O)[C@H](CCCNC(=N)N)NC(=O)[C@H](CCCNC(=N)N)NC(=O)[C@@H](NC(=O)[C@H](Cc2ccc(O)cc2)NC(=O)[C@H](CCCNC(=N)N)NC(=O)[C@H](CCCNC(=N)N)NC(=O)[C@H](CCCNC(=N)N)NC(=O)[C@H](CCCNC(=N)N)NC(=O)[C@H](CC(=O)O)NC(=O)[C@H](Cc2ccc(O)cc2)NC(=O)[C@@H]2CCCN2C(=O)[C@H](CO)NC(=O)[C@H](CCCNC(=N)N)NC(=O)[C@@H]2CSSC[C@H](NC(=O)[C@H](C)N)C(=O)N[C@@H](CCCNC(=N)N)C(=O)N[C@@H](CO)C(=O)N[C@@H](CO)C(=O)NCC(=O)N[C@@H](CCCNC(=N)N)C(=O)N[C@@H](Cc3ccc(O)cc3)C(=O)N2)CSSC[C@@H](C(=O)N[C@H](C(=O)O)C(C)C)NC(=O)[C@H](C)NC(=O)[C@H](CC(=O)O)NC(=O)[C@H]([C@@H](C)O)NC1=O`, for which the figures for the half-inhibitory concentration (IC50) in experiment [1] and in experiment [2] were 8.1 nM and 1080 nM, respectively.

With `CC[C@H](C)[C@@H]1NC(=O)[C@H](CCCNC(=N)N)NC(=O)[C@H](CCCNC(=N)N)NC(=O)[C@@H]2CSSC[C@H](NC(=O)[C@H](Cc3ccc(O)cc3)NC(=O)[C@H](CCCNC(=N)N)NC(=O)CNC(=O)[C@H](CO)NC(=O)[C@H](CO)NC(=O)[C@H](CCCNC(=N)N)NC(=O)[C@@H](NC(=O)[C@@H](N)[C@@H](C)O)CSSC[C@@H](C(=O)N[C@H](C(=O)O)C(C)C)NC(=O)[C@H](C)NC(=O)[C@H](CC(=O)O)NC(=O)[C@H]([C@@H](C)O)NC1=O)C(=O)N[C@@H](CCCNC(=N)N)C(=O)N[C@@H](CO)C(=O)N1CCC[C@H]1C(=O)N[C@@H](Cc1ccc(O)cc1)C(=O)N[C@@H](CC(=O)O)C(=O)N[C@@H](CCCNC(=N)N)C(=O)N[C@@H](CCCNC(=N)N)C(=O)N[C@@H](CCCNC(=N)N)C(=O)N[C@@H](C)C(=O)N[C@@H](Cc1ccc(O)cc1)C(=O)N2`, the values for the IC50 in experiment [1] and in experiment [2] were 27 nM and more than 10000 nM, respectively.

`CC[C@H](C)[C@@H]1NC(=O)[C@H](CCCNC(=N)N)NC(=O)[C@H](CCCNC(=N)N)NC(=O)[C@@H](NC(=O)[C@H](Cc2ccc(O)cc2)NC(=O)[C@H](CCCNC(=N)N)NC(=O)[C@H](CCCNC(=N)N)NC(=O)[C@H](CCCNC(=N)N)NC(=O)[C@H](CCCNC(=N)N)NC(=O)[C@H](CC(=O)O)NC(=O)[C@H](Cc2ccc(O)cc2)NC(=O)[C@@H]2CCCN2C(=O)[C@H](CO)NC(=O)[C@H](CCCNC(=N)N)NC(=O)[C@@H]2CSSC[C@H](NC(=O)[C@@H](N)[C@@H](C)O)C(=O)N[C@@H](CCCNC(=N)N)C(=O)N[C@@H](CO)C(=O)N[C@@H](CO)C(=O)NCC(=O)N[C@@H](C)C(=O)N[C@@H](Cc3ccc(O)cc3)C(=O)N2)CSSC[C@@H](C(=O)N[C@H](C(=O)O)C(C)C)NC(=O)[C@H](C)NC(=O)[C@H](CC(=O)O)NC(=O)[C@H]([C@@H](C)O)NC1=O` (HELM PEPTIDE1{T.C.R.S.S.G.A.Y.C.R.S.P.Y.D.R.R.R.R.Y.C.R.R.I.T.D.A.C.V}$PEPTIDE1,PEPTIDE1,2:R3-9:R3|PEPTIDE1,PEPTIDE1,20:R3-27:R3$$$V2.0): the results for the IC50 in experiment [1] and in experiment [2] were 44 nM and 1470 nM, respectively.

In the case of `CC[C@H](C)[C@@H]1NC(=O)[C@H](CCCNC(=N)N)NC(=O)[C@H](CCCNC(=N)N)NC(=O)[C@@H]2CSSC[C@H](NC(=O)[C@H](Cc3ccc(O)cc3)NC(=O)[C@H](CCCNC(=N)N)NC(=O)CNC(=O)[C@H](CO)NC(=O)[C@H](CO)NC(=O)[C@H](CCCNC(=N)N)NC(=O)[C@@H](NC(=O)[C@@H](N)[C@@H](C)O)CSSC[C@@H](C(=O)N[C@H](C(=O)O)C(C)C)NC(=O)[C@H](C)NC(=O)[C@H](CC(=O)O)NC(=O)[C@H]([C@@H](C)O)NC1=O)C(=O)N[C@@H](C)C(=O)N[C@@H](CO)C(=O)N1CCC[C@H]1C(=O)N[C@@H](Cc1ccc(O)cc1)C(=O)N[C@@H](CC(=O)O)C(=O)N[C@@H](CCCNC(=N)N)C(=O)N[C@@H](CCCNC(=N)N)C(=O)N[C@@H](CCCNC(=N)N)C(=O)N[C@@H](CCCNC(=N)N)C(=O)N[C@@H](Cc1ccc(O)cc1)C(=O)N2` (HELM PEPTIDE1{T.C.R.S.S.G.R.Y.C.A.S.P.Y.D.R.R.R.R.Y.C.R.R.I.T.D.A.C.V}$PEPTIDE1,PEPTIDE1,2:R3-27:R3|PEPTIDE1,PEPTIDE1,9:R3-20:R3$$$V2.0), the IC50 in experiment [1] was 35 nM; in experiment [2] it was 8760 nM.

Regarding `CC[C@H](C)[C@@H]1NC(=O)[C@H](CCCNC(=N)N)NC(=O)[C@H](CCCNC(=N)N)NC(=O)[C@@H]2CSSC[C@H](NC(=O)[C@H](Cc3ccc(O)cc3)NC(=O)[C@H](CCCNC(=N)N)NC(=O)CNC(=O)[C@H](CO)NC(=O)[C@H](CO)NC(=O)[C@H](CCCNC(=N)N)NC(=O)[C@@H](NC(=O)[C@@H](N)[C@@H](C)O)CSSC[C@@H](C(=O)N[C@H](C(=O)O)C(C)C)NC(=O)[C@H](C)NC(=O)[C@H](CC(=O)O)NC(=O)[C@H]([C@@H](C)O)NC1=O)C(=O)N[C@@H](CCCNC(=N)N)C(=O)N[C@@H](CO)C(=O)N1CCC[C@H]1C(=O)N[C@@H](Cc1ccc(O)cc1)C(=O)N[C@@H](CC(=O)O)C(=O)N[C@@H](CCCNC(=N)N)C(=O)N[C@@H](CCCNC(=N)N)C(=O)N[C@@H](C)C(=O)N[C@@H](CCCNC(=N)N)C(=O)N[C@@H](Cc1ccc(O)cc1)C(=O)N2`, the figures for the IC50 in experiment [1] and in experiment [2] were 58 nM and more than 10000 nM, respectively.

Regarding `CC[C@H](C)[C@@H]1NC(=O)[C@H](CCCNC(=N)N)NC(=O)[C@H](CCCNC(=N)N)NC(=O)[C@@H]2CSSC[C@H](NC(=O)[C@H](Cc3ccc(O)cc3)NC(=O)[C@H](CCCNC(=N)N)NC(=O)CNC(=O)[C@H](CO)NC(=O)[C@H](C)NC(=O)[C@H](CCCNC(=N)N)NC(=O)[C@@H](NC(=O)[C@@H](N)[C@@H](C)O)CSSC[C@@H](C(=O)N[C@H](C(=O)O)C(C)C)NC(=O)[C@H](C)NC(=O)[C@H](CC(=O)O)NC(=O)[C@H]([C@@H](C)O)NC1=O)C(=O)N[C@@H](CCCNC(=N)N)C(=O)N[C@@H](CO)C(=O)N1CCC[C@H]1C(=O)N[C@@H](Cc1ccc(O)cc1)C(=O)N[C@@H](CC(=O)O)C(=O)N[C@@H](CCCNC(=N)N)C(=O)N[C@@H](CCCNC(=N)N)C(=O)N[C@@H](CCCNC(=N)N)C(=O)N[C@@H](CCCNC(=N)N)C(=O)N[C@@H](Cc1ccc(O)cc1)C(=O)N2`, the IC50 turned out to be 17 nM in experiment [1] and 4100 nM in experiment [2].

For the compound `CC[C@H](C)[C@@H]1NC(=O)[C@H](CCCNC(=N)N)NC(=O)[C@H](CCCNC(=N)N)NC(=O)[C@@H]2CSSC[C@H](NC(=O)[C@H](Cc3ccc(O)cc3)NC(=O)[C@H](CCCNC(=N)N)NC(=O)CNC(=O)[C@H](CO)NC(=O)[C@H](CO)NC(=O)[C@H](CCCNC(=N)N)NC(=O)[C@@H](NC(=O)[C@H](C)N)CSSC[C@@H](C(=O)N[C@H](C(=O)O)C(C)C)NC(=O)[C@H](C)NC(=O)[C@H](C)NC(=O)[C@H]([C@@H](C)O)NC1=O)C(=O)N[C@@H](CCCNC(=N)N)C(=O)N[C@@H](CO)C(=O)N1CCC[C@H]1C(=O)N[C@@H](Cc1ccc(O)cc1)C(=O)N[C@@H](CC(=O)O)C(=O)N[C@@H](CCCNC(=N)N)C(=O)N[C@@H](CCCNC(=N)N)C(=O)N[C@@H](CCCNC(=N)N)C(=O)N[C@@H](CCCNC(=N)N)C(=O)N[C@@H](Cc1ccc(O)cc1)C(=O)N2`, the IC50 in experiment [1] came out at 27 nM; in experiment [2], 5890 nM.

Values taken from ChEMBL document CHEMBL5346973 (J Med Chem, 2023).
